# Laboratory results from patent EP0863134A1, “2-(3,5-difluorophenyl)-3-(4-(methyl-sulfonyl)phenyl)-2-cyclopenten-1-one useful as an inhibitor of cyclooxygenase-2” (MERCK FROSST CANADA INC., priority 1997, dated 1998).
# What was measured:
# COX-2 [1] = target: T1, COX-2 (Homo sapiens, UniProt P35354); assay: Whole cell assay for COX-2 using CHO transfected cell line CHO[hCOX-2]; assay type: cell-based; details: CHO[hCOX-2] cells, 10 µM AA, PGE2
# T1 construct: endogenous in cells; host or cells: fresh heparinized human whole blood from volunteers, LPS-stimulated
# T1 sequence (P35354 18-604): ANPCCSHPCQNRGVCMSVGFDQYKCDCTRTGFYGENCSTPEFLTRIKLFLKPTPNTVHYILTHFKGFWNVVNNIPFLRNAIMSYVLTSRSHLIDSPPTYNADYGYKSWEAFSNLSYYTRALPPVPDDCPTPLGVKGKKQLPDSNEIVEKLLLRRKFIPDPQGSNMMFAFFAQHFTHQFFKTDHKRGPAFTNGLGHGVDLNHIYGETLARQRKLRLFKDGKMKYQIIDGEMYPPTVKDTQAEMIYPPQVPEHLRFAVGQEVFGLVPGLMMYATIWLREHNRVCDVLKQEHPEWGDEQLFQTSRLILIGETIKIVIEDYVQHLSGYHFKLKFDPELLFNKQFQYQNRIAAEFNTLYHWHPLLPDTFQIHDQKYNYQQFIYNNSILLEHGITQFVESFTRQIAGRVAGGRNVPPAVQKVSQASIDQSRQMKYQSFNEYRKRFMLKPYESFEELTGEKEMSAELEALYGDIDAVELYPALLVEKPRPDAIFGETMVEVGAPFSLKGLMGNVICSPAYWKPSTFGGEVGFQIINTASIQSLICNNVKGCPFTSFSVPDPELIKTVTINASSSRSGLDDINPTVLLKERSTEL
# Description: (§1) Chinese hamster ovary (CHO) cell lines which have been stably transfected with an eukaryotic expression vector pCDNAIII containing either the human COX-1 or COX-2 cDNA's are used for the assay. These cell lines are referred to as CHO [hCOX-1] and CHO [hCOX-2], respectively. For cyclooxygenase assays, CHO[hCOX-1] cells from suspension cultures and CHO[hCOX-2] cells prepared by trypsinization of adherent cultures are harvested by centrifugation (300 x g, 10 min) and washed once in HBSS containing 15 mM HEPES, pH 7.4, and resuspended in HBSS, 15 mM HEPES, pH 7.4, at a cell concentration of 1.5 x 10^6 cells/ml. Drugs to be tested are dissolved in DMSO to 66.7-fold the highest test drug concentration. Compounds are typically tested at 8 concentrations in duplicate using serial 3-fold serial dilutions in DMSO of the highest drug concentration. […] Cyclooxygenase activity in the absence of test compounds is determined as the difference in PGE2 levels of cells challenged with arachidonic acid versus the PGE2 levels in cells mock-challenged with ethanol vehicle. Inhibition of PGE2 synthesis by test compounds is calculated as a percentage of the activity in the presence of drug versus the activity in the positive control samples. […] In the assays, inhibition is determined by measuring the amount of a prostaglandin synthesized in the presence and absence of a putative inhibitor. […]
# Rat Paw edema = assay: Rat paw edema assay (carrageenan); assay type: in vivo, Male Sprague-Dawley rats; details: po, 1 hr before carrageenan, paw volume 3 hr later
# Description: Male Sprague-Dawley rats (150-200 g) are fasted overnight and are given po, either vehicle (1% methocel or 5% Tween 80) or a test compound. One hr later, a line is drawn using a permanent marker at the level above the ankle in one hind paw to define the area of the paw to be monitored. The paw volume (V0) is measured using a plethysmometer (Ugo-Basile, Italy) based on the principle of water displacement. The animals are then injected subplantarly with 50 µl of 1% carrageenan solution in saline (FMC Corp, Maine) into the paw using an insulin syringe with a 25-gauge needle (i.e. 500 µg carrageenan per paw). Three hr later, the paw volume (V3) is measured and the increases in paw volume (V3 - VO) are calculated. The animals are sacrificed by CO2 asphyxiation and the absence or presence of stomach lesions scored. Data is compared with the vehicle-control values and percent inhibition calculated. All treatment groups are coded to eliminate observer bias.
# Compounds of the present invention are inhibitors of COX-2 and are thereby useful in the treatment of COX-2 mediated diseases as enumerated above. The activities of compound A against cyclooxygenase may be seen in the representative results shown below in the Table. In the assays, inhibition is determined by measuring the amount of a prostaglandin synthesized in the presence and absence of a putative inhibitor. […]
# COX-2 [2] = target: T1, COX-2; assay: Human whole blood assay, COX-2 (LPS-induced PGE2 production); assay type: cell-based; details: LPS-induced PGE2, 24 hours at 37°C
# Description: (§2) Human whole blood provides a protein and cell-rich milieu appropriate for the study of biochemical efficacy of anti-inflammatory compounds such as selective COX-2 inhibitors. […] This is consistent with the observation that COX-2 inhibitors have no effect on PGE2 production in normal blood. These inhibitors are active only after incubation of human whole blood with LPS, which induces COX-2. This assay can be used to evaluate the inhibitory effect of selective COX-2 inhibitors on PGE2 production. As well, platelets in whole blood contain a large amount of the COX-1 enzyme. Immediately following blood clotting, platelets are activated through a thrombin-mediated mechanism. […] Thus, the effect of test compounds on TxB2 levels following blood clotting can be examined and used as an index for COX-1 activity. Therefore, the degree of selectivity by the test compound can be determined by measuring the levels of PGE2 after LPS induction (COX-2) and TxB2 following blood clotting (COX-1) in the same assay. Fresh blood is collected in heparinized tubes by venipuncture from both male and female volunteers. The subjects have no apparent inflammatory conditions and have not taken any NSAIDs for at least 7 days prior to blood collection. […] In the assays, inhibition is determined by measuring the amount of a prostaglandin synthesized in the presence and absence of a putative inhibitor. […]
# COX-1 [3] = target: T2, COX-1 (Homo sapiens, UniProt P23219); assay: Assay of COX-1 activity from U937 cell microsomes; assay type: biochemical; parameters: endogenous in cells; host or cells: U937 cells, 100,000 x g microsomal fraction; details: PGE2
# Description: U 937 cells are pelleted by centrifugation at 500 x g for 5 min and washed once with phosphate-buffered saline and repelleted. Cells are resuspended in homogenization buffer consisting of 0.1 M Tris-HCl, pH 7.4, 10 mM EDTA, 2 µg/ml leupeptin, 2 µg/ml soybean trypsin inhibitor, 2 µg/ml aprotinin and 1 mM phenyl methyl sulfonyl fluoride. The cell suspension is sonicated 4 times for 10 sec and is centrifuged at 10,000 x g for 10 min at 4° C. The supernatant is centrifuged at 100,000 x g for 1 hr at 4° C. The 100,000 x g microsomal pellet is resuspended in 0.1 M Tris-HCl, pH 7.4, 10 mM EDTA to approximately 7 mg protein/ml and stored at -80° C. Microsomal preparations are thawed immediately prior to use, subjected to a brief sonication, and then diluted to a protein concentration of 125 µg/ml in 0.1 M Tris-HCl buffer, pH 7.4 containing 10 mM EDTA, 0.5 mM phenol, 1 mM reduced glutathione and 1 µM hematin. Assays are performed in duplicate in a final volume of 250 µl. […] Samples are neutralized with 25 µl of 1 N NaOH prior to quantitation of PGE2 content by radioimmunoassay (Dupont-NEN or Amersham assay kits). […] In the assays, inhibition is determined by measuring the amount of a prostaglandin synthesized in the presence and absence of a putative inhibitor. […]
# COX-1 [4] = target: T2, COX-1; assay: Human whole blood assay, COX-1 (clotting-induced TxB2 production); assay type: cell-based; parameters: platelets in whole blood contain a large amount of the COX-1 enzyme; endogenous in cells; host or cells: platelets in fresh human whole blood without anticoagulant; details: clotting-induced TxB2, 1 hour at 37°C
# Description: as §2, with “into vacutainers containing” for “in heparinized tubes by venipuncture from both male and female volunteers. The subjects have”, “anticoagulants.” for “apparent inflammatory conditions and have not taken any NSAIDs for at least 7 days prior to blood collection.”
# COX-1 [5] = target: T2, COX-1; assay: Whole cell assay for COX-1 using CHO transfected cell line CHO[hCOX-1]; assay type: cell-based; parameters: platelets in whole blood contain a large amount of the COX-1 enzyme; endogenous in cells; host or cells: platelets in fresh human whole blood without anticoagulant; details: CHO[hCOX-1] cells, 0.5 µM AA, PGE2
# Description: as §1
# T2 sequence (P23219 24-599): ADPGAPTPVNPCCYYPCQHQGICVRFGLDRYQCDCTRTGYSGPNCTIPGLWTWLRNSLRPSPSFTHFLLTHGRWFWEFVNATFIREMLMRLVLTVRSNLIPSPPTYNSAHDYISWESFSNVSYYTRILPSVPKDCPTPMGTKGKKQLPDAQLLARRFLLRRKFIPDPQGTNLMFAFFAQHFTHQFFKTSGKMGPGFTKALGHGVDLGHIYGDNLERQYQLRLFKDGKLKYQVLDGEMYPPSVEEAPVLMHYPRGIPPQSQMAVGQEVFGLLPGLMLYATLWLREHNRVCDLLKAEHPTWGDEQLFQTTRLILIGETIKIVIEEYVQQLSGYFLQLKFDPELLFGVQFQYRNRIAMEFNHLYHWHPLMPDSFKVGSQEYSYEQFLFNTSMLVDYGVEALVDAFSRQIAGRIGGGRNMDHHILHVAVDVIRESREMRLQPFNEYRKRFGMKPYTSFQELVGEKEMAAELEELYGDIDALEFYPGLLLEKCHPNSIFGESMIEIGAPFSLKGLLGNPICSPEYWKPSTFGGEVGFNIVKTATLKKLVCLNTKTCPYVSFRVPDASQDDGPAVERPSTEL
Structure (SMILES),IC50 (COX-2 [1]) [nM],ED50 (Rat Paw edema) [mg/kg],IC50 (COX-2 [2]) [nM],IC50 (COX-1 [3]) [nM],IC50 (COX-1 [4]) [nM],IC50 (COX-1 [5]) [nM],IC50 (COX-1 [5]; unit inferred) [nM]
"CS(=O)(=O)c1ccc(C2=C(c3cc(F)cc(F)c3)C(=O)CC2)cc1 [Compound A, 2-(3,5-difluorophenyl)-3-(4-(methylsulfonyl)phenyl)-2-cyclopenten-1-one]",30,2.6,450,11000,77000,> 50000,
CS(=O)(=O)c1ccc(C2=C(c3ccc(F)cc3)C(=O)CC2)cc1 [Compound B],20,3,120,450,4400,,17000
